Read-outs that look alike come from different tables or passages of the source.
How the values were obtained:
opioid μ receptor = opioid μ receptor (Rattus norvegicus (Rat), UniProt P33535); assay: Binding assay to opioid μ receptor ([3H]-DAMGO, rat cerebrum membrane)
Procedure: (§1) 1) Method of Preparing Membrane Specimen for Binding Assay
(§2) A rat cerebrum (Slc: SD) which had been stored at −80° C. was used. To a cerebrum which had been weighed was added a 20-fold amount of ice-cooled 10 mM Tris-HCl buffer (pH 7.0), the mixture was homogenized (25000 rpm, 30 seconds) with Histocolon (NITI-ON), and centrifuged at 36600×g for 20 minutes. To the resulting pellet was added 15 ml of the same buffer, and the mixture was treated with Histocolon similarly, and centrifuged. This washing work was performed two times. After centrifugation, to the resulting pellet was added 15 mL of a 50 mM Tris-HCl buffer (pH 7.4), this was treated with Histocolon, and this was finally resuspended in a 10-fold amount of the same buffer, which was used as a crude membrane fraction (Life Sci. 48, 111-116, 1991). The prepared membrane specimen was frozen and stored at −80° C., and at a test, the specimen was rapidly thawed, and diluted to about 900 μg/mL with a 50 mM Tris-HCl buffer (pH 7.4) after the centrifugation and Histocolon treatment, and was used in an experiment. For measuring a protein concentration of the membrane specimen, Micro BCA Protein Assay Kit (PIERCE) was used.
2) Method of μ Receptor Binding Assay and Data Analysis
After washing, the filter was transferred to a mini vial for liquid scintillation counter, 5 mL of a scintillator (Cleasol I) was added, and this was allowed to stand overnight, and the radioactivity was measured for 3 minutes with a liquid scintillation counter Tri-Carb 2200CA (PACKARD).

[1] = tested on: carbon powder transport of inhibitory activity by morphine; assay: Mouse carbon powder transport assay (antagonism of morphine-inhibited small intestine transport); format: in vivo; settings: sc, 1 h, test compound 3 mg/kg subcutaneously, 15 minutes before morphine 3 mg/kg
Procedure: 1) Preparation of Test Diet (Carbon Powder)
Using a 10 w/v % arabic gum aqueous solution, a 5 w/v % active carbon solution was prepared, which was used as a test diet.
A ddY line male mouse (5 to 6 weeks old) was used. The mouse was fasted from about 20 or more hours before assay initiation, and water was given ad lib.
The test compound was dissolved in a solvent (DMAA/Solutol/5% meglumine=15/15/70).
Morphine hydrochloride was dissolved in a physiological saline. The test compound, the above solvent and morphine were all administered at a liquid amount of 10 mL/kg.
The test compound 3 mg/kg (test compound administration group) or the solvent (solvent administration group) were subcutaneously administered and, after 15 minutes, amount of 3 mg/kg of morphine was administered to all groups. As a control group, the solvent was subcutaneously administered and, after 15 minutes, a physiological saline was administered.
The test diet 10 mL/kg was orally administered at 15 minutes after administration of morphine. At thirty minutes after administration of the test diet (60 minutes after administration of the test substance), all mice were isolated from esophagus to an ileocecal part near a stomach cardia part. A distance from pyloric part of the stomach to an ileocecal part (full length of small intestine) and a distance until a carbon powder reaching front part (carbon powder movement distance) were measured. The antagonistic activity on the carbon powder transport of inhibitory activity by morphine was calculated as MPE (%) using the following equation. Transport rate (%)=(carbon powder movement distance)/full length of small intestine (cm))×100 M.P.E. (%)={(small intestine transport rate (%) of each individual of test compound administration group−average small intestine transport rate (%) of solvent administration group)/(average small intestine transport rate (%) of control group−average small intestine transport rate (%) of solvent administration group)}×100

opioid δ receptor = opioid δ receptor (Rattus norvegicus (Rat), UniProt P33533); assay: Binding assay of opioid δ receptor ([3H]-DADLE, rat cerebrum membrane)
Procedure: as §1
as §2, with “7.0), and” for “7.0),”, “7.4), and” for “7.4),”, “and” for “and this was”, “an assay,” for “a test,”
2) Method of δ Receptor Binding Assay and Data Analysis
Into a tube was placed 480 μl of a rat cerebrum membrane fraction to which 100 mM choline chloride, 3 mM MnCl2 and 100 nM DAMGO had been added, and this was incubated at 25° C. for 2 hours. […] After washing, the filter was transferred to a mini vial for liquid scintillation counter, 5 mL of a scintillator (Cleasol I) was added, this was allowed to stand overnight, and the radioactivity was measured for 3 minutes with a liquid scintillation counter Tri-Carb 2200CA (PACKARD).

Compound	Ki (opioid μ receptor)	percent antagonism of morphine-inhibited transport (M.P.E.) at 3 mg/kg [1]	Ki (opioid δ receptor)	Ki (opioid μ receptor; [3H]-DAMGO, rat cerebrum membrane fraction, read-out: Ki)
O=C(Nc1ccc([N+](=O)[O-])cn1)C1=C(O)[C@@H]2Oc3c(O)ccc4c3[C@@]23CCN(CC2CC2)[C@H](C4)[C@]3(O)C1 [Compound I-208]	5.89 nM	81.2%	13.3 nM	
CCN(CC)S(=O)(=O)c1ccc(OC)c(NC(=O)C2=C(O)[C@@H]3Oc4c(O)ccc5c4[C@@]34CCN(CC3CC3)[C@H](C5)[C@]4(O)C2)c1 [Compound I-229]		39.7%	5.9 nM	1.3 nM

From US8536192B2, “6,7-unsaturated-7-carbamoyl substituted morphinan derivative” (priority 2005, dated 2013)
